Where a name gives a salt, the structure may show the parent alone.
Key:
[1] = Summary of experiments on phthaloylhydrazide derivatives; assay type: in vivo; details: for pharmacological activity, anti-hypoxic and defensive action: doses of 10 to 300 mg/kg
Sprague-Dawley rats = details: use to decrease serum cholesterol levels; cited from earlier work
[2] = test system: brain ischemia (carotid tying) in mice; assay: Example 4: carotid tying and release in mice; assay type: in vivo; details: control mortality 50%
Description: We performed experiments on 50 mice of the pyramid by tying the carotid under light anesthesia. After 7 minutes, we released the tie and restored the blood circulation in the ischemic area.

hypoxia in mice = assay: Example 1: resistance of mice to hypoxia (altitude of 10,400 meters); assay type: in vivo; details: control 41±2.5, sodium salt at 60 to 80 mg/kg
Description: We assessed the pharmacological activity on the basis of the resistance of the animals to hypoxia. […] We administered the drug intravenously in doses of 10 to 300 mg, in 0.1 ml of physiological solution. In some cases, because of poor solubility, we injected the derivatives in the form of suspensions. The control animals received 0.1 ml of physiological solution.

[3] = test system: myocardial ischemia in rats; assay: Example 3: myocardial ischemia with restored circulation in rats; assay type: in vivo
Description: Experiments were performed on 60 previously prepared rats. Thirty days before the start of the main experiment, a part of the coronary artery was tied off.
Next, after having supplied light anesthesia, we created by means of the obstruction of the vessel a massive hearth of myocardial ischemia.
We administered the sodium salt intravenously in doses of 30, 100, 200 and 250 mg per kilogram of body weight, immediately after having released the tie. In the control group, the rats were administered a physiological solution, while the test group was given the antioxidant Dibunolo (20% oily solution in a dose of 30 mg/kg).

[4] = test system: ethane and pentane contents of the air inhaled by the animals; details: change in ethane and pentane contents
leukocytes = details: in vivo
[5] = test system: leukocytes in ischemic tissue; surviving animals
[6] = morphological analysis, test group

For `O=c1[nH][nH]c(=O)c2ccccc12` [Phthaloylhydrazide, 2,3 dihydrophthalazine-1,4 dione], the “pharmacological activity, anti-hypoxic and defensive action” value (“pharmacological activity” for short) [1] is listed as “possess a pronounced pharmacological activity” and the toxicity (Sprague-Dawley rats) is listed as “certain signs of toxicity”.

For `N[C@@H](Cc1c[nH]cn1)C(=O)O` [histidine, reference compound], the prevention of mortality [2] was “not entirely prevented”.

For `Nc1ccc2c(=O)[nH][nH]c(=O)c2c1` [4-aminophthaloylhydrazide], the therapeutic effects ([1]; in vivo) was “major therapeutic effects”.

For dimethyldiaminophthaloylhydrazide, the “life span of the animals” value (hypoxia in mice) was 89 ± 12 s.

In the case of “4,5-amino-2,3- dihydrophthalazine-1,2 dione [4,5-aminophthaloylhydrazide]”, the “pharmacological activity” value [1] is reported as “possess a pronounced pharmacological activity”.

In the case of `Nc1cccc2c(=O)[nH][nH]c(=O)c12` [sodium salt of 5-aminophthaloylhydrazide, sodium salt of 5-amino-2,3-dihydrophthalazine-1,2 dione], the “life span of the animals” value (hypoxia in mice) is reported as 222 ± 45 s, the “signs of a therapeutic effect” value ([3]; 30 mg/kg i.v.) is reported as “clear signs of a therapeutic effect” and the prevention of death ([3]; 30 mg/kg i.v., p>0.05) is reported as “did not prevent the death of the animals”. For the same compound, the “number of surviving animals” value ([3]; 100 mg/kg and beyond, i.v., p<0.01-0.001) was “increase in the number of surviving animals”, the “damaged area of myocardium” value [3, 6] was “the damaged area could not be perceived visually” and the “necrotic hearths in myocardium” value [3, 6] was “The tiny necrotic hearths were few and diffused”. For the same compound, the “antioxidant action in vivo” value [4] was “antioxidant action in vivo”, the “adhesion capacity of the leukocytes” value (leukocytes) was “drop in the adhesion capacity of the leukocytes” and the “anti-hypoxic activity vs antioxidants (Dibunolo, histidine, Organeia, etc.)” value (hypoxia; 60 to 80 mg) was “exceeds that of antioxidants used thus far in medical practice”. For the same compound, the “anti-hypoxic effect on further dose increase” value (hypoxia; beyond 100 mg/kg) was “the effect does not basically increase”, the “percentage of surviving animals” value ([5]; experimental group, intravenous, p<0.01) was 80% and the “increase of leukocyte levels in the blood” value ([5]; one time i.v. 150 to 250 mg/kg) was 2.5 times. For the same compound, the “previously penetrated leukocytes eliminated” value ([5]; one time i.v. 150 to 250 mg/kg, after 6 hours) was 75%.

With `Cc1cc(C(C)(C)C)c(O)c(C(C)(C)C)c1` [Dibunolo, reference compound] the survival rate ([3]; Dibunolo 20% oily solution, 30 mg/kg, p>0.05) was “tendency toward rising survival rates of the animals, but the results obtained were not reliable” and the prevention of mortality [2] was “not entirely prevented”.

For “4-methyl-4,5-diamino-2,3 dihydrophthalazine-1,2 dione”, the “pharmacological activity” value [1] was “possess a pronounced pharmacological activity”.

Reference: patent publication US5512573A, “Use of phthaloylhydrazide derivatives as anti-hypoxic and defensive agents” (priority 1993, dated 1996)
